# Source: article PMC4008261, “Rewiring of regenerated axons by combining treadmill training with semaphorin3A inhibition” (Molecular Brain, 2014)
# Assays:
# Caspase 1 = Caspase 1 (Homo sapiens, UniProt P29466); test: Pharmacological profile: enzyme inhibition; format: biochemical
# Excerpt: (§1) Table 1 Pharmacological profile of SM-345431 (part 1) | column: IC50 (μm)
# Caspase 3 = Caspase 3 (Homo sapiens, UniProt P42574); test: Pharmacological profile: enzyme inhibition; format: biochemical
# Excerpt: as §1
# Caspase 6 = Caspase 6 (Homo sapiens, UniProt P55212); test: Pharmacological profile: enzyme inhibition; format: biochemical
# Chain of Caspase 6 (P55212 24-179 limits assumed, species assumed): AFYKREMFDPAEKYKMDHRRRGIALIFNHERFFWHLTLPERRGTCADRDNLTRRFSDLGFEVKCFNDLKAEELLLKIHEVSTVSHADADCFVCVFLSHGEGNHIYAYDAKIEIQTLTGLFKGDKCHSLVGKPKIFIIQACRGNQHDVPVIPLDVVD
# Chain of Caspase 6 (P55212 194-293 limits assumed, species assumed): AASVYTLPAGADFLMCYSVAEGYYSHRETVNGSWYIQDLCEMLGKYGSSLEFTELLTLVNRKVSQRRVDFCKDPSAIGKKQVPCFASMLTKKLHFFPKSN
# Excerpt: as §1
# Caspase 7 = Caspase 7 (Homo sapiens, UniProt P55210); test: Pharmacological profile: enzyme inhibition; format: biochemical
# Chain of Caspase 7 (P55210 24-198 limits assumed, species assumed): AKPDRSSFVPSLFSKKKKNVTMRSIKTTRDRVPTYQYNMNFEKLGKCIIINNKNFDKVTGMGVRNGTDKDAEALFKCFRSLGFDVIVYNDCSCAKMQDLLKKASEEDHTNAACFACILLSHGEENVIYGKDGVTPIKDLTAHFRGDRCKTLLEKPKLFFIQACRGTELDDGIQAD
# Chain of Caspase 7 (P55210 207-303 limits assumed, species assumed): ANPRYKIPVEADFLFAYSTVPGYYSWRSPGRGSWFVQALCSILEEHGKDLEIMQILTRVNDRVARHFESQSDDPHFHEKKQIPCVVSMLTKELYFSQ
# Excerpt: as §1
# Caspase 8 = Caspase 8 (Homo sapiens, UniProt Q14790); test: Pharmacological profile: enzyme inhibition; format: biochemical
# Excerpt: as §1
# [1] = molecular target: Matrix Metalloproteinase-1 (MMP-1) (Homo sapiens, UniProt P03956); test: Pharmacological profile: enzyme inhibition; format: biochemical
# Chain of Matrix Metalloproteinase-1 (MMP-1) (P03956 100-469, species assumed): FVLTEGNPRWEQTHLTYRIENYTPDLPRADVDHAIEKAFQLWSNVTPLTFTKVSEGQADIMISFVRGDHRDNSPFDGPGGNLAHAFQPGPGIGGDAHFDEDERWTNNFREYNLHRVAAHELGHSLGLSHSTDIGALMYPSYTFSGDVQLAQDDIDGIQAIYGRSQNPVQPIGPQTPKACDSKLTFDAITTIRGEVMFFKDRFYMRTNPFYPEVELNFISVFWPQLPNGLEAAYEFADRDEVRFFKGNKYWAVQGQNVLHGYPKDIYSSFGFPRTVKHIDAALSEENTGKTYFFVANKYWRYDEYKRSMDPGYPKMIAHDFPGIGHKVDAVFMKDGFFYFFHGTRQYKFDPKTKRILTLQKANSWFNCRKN
# Excerpt: as §1
# [2] = molecular target: Matrix Metalloproteinase-2 (MMP-2) (Homo sapiens, UniProt P08253); test: Pharmacological profile: enzyme inhibition; format: biochemical
# Chain of Matrix Metalloproteinase-2 (MMP-2) (P08253 110-660, species assumed): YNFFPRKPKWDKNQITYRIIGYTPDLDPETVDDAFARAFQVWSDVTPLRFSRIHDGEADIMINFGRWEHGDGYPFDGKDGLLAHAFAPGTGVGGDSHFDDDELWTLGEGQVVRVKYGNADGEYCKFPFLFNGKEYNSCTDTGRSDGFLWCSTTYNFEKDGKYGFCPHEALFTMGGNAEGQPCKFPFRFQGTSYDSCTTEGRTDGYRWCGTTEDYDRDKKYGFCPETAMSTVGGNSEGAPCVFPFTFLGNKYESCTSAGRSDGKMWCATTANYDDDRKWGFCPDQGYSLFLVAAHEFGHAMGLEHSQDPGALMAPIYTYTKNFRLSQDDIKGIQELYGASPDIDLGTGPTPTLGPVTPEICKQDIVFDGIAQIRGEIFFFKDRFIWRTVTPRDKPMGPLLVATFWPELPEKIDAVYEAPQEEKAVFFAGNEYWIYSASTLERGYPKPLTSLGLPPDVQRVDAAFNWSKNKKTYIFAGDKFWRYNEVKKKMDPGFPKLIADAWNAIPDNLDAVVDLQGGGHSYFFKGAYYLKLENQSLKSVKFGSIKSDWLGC
# Excerpt: as §1
# [3] = molecular target: Matrix Metalloproteinase-3 (MMP-3) (Homo sapiens, UniProt P08254); test: Pharmacological profile: enzyme inhibition; format: biochemical
# Chain of Matrix Metalloproteinase-3 (MMP-3) (P08254 100-477, species assumed): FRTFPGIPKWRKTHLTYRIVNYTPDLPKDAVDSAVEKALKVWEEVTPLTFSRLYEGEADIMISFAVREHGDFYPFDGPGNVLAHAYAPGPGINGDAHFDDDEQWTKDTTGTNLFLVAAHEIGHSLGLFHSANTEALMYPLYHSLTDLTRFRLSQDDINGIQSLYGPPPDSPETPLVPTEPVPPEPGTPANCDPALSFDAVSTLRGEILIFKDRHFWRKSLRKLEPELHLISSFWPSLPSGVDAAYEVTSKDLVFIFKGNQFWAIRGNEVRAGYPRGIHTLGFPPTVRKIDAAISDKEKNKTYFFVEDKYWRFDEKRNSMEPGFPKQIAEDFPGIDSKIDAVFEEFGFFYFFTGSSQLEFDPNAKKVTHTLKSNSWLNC
# Excerpt: as §1
# [4] = molecular target: Matrix Metalloproteinase-7 (MMP-7) (Homo sapiens, UniProt P09237); test: Pharmacological profile: enzyme inhibition; format: biochemical
# Chain of Matrix Metalloproteinase-7 (MMP-7) (P09237 95-267, species assumed): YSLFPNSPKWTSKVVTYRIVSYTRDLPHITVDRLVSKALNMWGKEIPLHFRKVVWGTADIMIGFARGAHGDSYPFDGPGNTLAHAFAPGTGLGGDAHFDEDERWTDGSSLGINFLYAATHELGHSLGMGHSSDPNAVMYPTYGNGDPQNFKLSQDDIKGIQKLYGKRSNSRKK
# Excerpt: as §1
# [5] = molecular target: Matrix Metalloproteinase-9 (MMP-9) (Homo sapiens, UniProt P14780); test: Pharmacological profile: enzyme inhibition; format: biochemical
# Chain of Matrix Metalloproteinase-9 (MMP-9) (P14780 94-707, species assumed): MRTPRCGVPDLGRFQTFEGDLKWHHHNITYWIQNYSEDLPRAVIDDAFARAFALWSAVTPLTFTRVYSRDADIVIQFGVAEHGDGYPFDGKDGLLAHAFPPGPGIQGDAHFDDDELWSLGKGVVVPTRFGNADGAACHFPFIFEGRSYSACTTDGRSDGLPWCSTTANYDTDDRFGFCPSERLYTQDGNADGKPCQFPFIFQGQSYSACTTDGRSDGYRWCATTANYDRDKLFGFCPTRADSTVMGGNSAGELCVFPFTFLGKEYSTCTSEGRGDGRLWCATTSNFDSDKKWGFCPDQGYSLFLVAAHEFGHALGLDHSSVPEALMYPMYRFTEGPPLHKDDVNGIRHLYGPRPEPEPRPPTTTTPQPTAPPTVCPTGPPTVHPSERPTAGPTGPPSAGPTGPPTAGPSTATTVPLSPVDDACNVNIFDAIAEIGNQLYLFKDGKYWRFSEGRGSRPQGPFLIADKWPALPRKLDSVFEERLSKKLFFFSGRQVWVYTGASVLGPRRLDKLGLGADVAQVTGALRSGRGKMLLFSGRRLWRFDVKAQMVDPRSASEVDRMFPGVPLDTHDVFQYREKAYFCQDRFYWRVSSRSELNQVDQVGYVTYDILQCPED
# Excerpt: as §1
# [6] = molecular target: Protein Tyrosine Phosphatase, CD45 (Homo sapiens, UniProt P08575); test: Pharmacological profile: enzyme inhibition; format: biochemical
# Excerpt: as §1
# [7] = molecular target: Protein Tyrosine Phosphatase, PTP1B (Homo sapiens, UniProt P18031); test: Pharmacological profile: enzyme inhibition; format: biochemical
# Chain of Protein Tyrosine Phosphatase, PTP1B (P18031 whole entry): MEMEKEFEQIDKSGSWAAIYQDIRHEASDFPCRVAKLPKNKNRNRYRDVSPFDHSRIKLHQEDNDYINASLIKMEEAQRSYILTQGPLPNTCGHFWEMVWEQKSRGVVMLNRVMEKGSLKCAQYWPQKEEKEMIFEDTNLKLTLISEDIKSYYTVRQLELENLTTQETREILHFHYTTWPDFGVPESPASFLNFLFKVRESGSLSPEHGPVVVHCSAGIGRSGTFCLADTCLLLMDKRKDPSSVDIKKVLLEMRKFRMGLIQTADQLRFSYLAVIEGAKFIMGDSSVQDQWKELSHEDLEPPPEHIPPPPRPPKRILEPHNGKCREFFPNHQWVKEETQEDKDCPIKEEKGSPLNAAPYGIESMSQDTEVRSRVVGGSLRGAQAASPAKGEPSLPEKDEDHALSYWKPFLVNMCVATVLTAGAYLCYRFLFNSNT
# Excerpt: as §1
# [8] = molecular target: Protein Tyrosine Phosphatase, PTP1C (Homo sapiens, UniProt P29350); test: Pharmacological profile: enzyme inhibition; format: biochemical
# Chain of Protein Tyrosine Phosphatase, PTP1C (P29350 whole entry): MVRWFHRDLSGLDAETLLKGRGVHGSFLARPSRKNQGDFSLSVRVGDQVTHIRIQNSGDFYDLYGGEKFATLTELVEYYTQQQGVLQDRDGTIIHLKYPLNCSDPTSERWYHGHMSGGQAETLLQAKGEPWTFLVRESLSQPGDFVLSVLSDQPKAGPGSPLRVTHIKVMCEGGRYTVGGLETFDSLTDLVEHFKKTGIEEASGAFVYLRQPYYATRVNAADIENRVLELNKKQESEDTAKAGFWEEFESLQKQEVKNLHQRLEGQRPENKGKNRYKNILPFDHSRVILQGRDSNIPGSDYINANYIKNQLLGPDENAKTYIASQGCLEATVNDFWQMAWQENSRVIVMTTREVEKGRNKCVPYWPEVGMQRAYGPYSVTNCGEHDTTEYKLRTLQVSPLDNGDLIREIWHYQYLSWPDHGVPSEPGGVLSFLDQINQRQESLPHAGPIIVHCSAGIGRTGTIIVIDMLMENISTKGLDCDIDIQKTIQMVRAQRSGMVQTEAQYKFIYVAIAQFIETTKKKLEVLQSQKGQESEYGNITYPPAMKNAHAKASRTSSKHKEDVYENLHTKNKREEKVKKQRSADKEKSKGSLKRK
# Excerpt: as §1
# [9] = molecular target: Protein Tyrosine Phosphatase, T-Cell (Homo sapiens, UniProt P17706); test: Pharmacological profile: enzyme inhibition; format: biochemical
# Chain of Protein Tyrosine Phosphatase, T-Cell (P17706 whole entry): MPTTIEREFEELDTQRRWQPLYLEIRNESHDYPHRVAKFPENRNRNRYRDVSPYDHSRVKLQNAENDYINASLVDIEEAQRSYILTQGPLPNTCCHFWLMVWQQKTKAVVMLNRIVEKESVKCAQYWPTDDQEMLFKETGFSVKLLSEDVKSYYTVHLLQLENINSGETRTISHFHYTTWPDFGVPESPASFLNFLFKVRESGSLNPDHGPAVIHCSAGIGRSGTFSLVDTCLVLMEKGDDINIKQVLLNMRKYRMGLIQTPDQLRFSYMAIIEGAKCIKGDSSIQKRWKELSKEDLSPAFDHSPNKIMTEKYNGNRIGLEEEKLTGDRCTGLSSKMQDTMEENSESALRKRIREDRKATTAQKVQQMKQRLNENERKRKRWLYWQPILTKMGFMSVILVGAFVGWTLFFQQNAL
# Excerpt: as §1
# [10] = molecular target: Sphingomyelinase, Neutral (N-SMase); test: Pharmacological profile: enzyme inhibition; format: biochemical
# Excerpt: as §1
# [11] = tested on: Transcription response, NF-AT; test: Pharmacological profile: transcription response; format: cell-based
# Excerpt: as §1
# [12] = tested on: Transcription response, NF-kB; test: Pharmacological profile: transcription response; format: cell-based
# Excerpt: as §1
# semaphorin3A = molecular target: T1, semaphorin3A (Homo sapiens, UniProt Q14563); test: Growth cone collapse assay, E14 rat DRG; format: cell-based; conditions: read-out: semaphorin3A inhibiting activity, IC50
# T1 sequence (Q14563 21-771): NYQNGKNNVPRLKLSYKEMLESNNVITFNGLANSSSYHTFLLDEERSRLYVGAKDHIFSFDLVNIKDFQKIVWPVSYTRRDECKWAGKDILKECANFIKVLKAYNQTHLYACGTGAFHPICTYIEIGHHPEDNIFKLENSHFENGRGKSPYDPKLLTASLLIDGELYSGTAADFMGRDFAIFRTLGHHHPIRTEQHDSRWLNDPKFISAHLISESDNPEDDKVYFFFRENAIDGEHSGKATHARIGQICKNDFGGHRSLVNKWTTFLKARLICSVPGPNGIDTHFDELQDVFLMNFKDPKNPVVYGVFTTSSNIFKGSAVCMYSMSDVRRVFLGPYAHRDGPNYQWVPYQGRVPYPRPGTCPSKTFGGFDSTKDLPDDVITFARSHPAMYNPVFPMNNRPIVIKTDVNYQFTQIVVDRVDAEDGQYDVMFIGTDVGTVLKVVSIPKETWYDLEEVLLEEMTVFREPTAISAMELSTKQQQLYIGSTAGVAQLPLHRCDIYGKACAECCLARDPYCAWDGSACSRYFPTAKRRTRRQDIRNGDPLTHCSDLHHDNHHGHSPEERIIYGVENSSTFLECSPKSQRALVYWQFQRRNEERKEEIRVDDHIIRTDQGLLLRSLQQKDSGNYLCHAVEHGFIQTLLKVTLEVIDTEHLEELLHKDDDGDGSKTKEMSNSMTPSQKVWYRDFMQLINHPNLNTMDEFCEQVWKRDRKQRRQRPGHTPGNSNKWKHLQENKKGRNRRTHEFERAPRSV
# Protocol: The growth cone collapse assay and collagen co-culture experiments were performed as previously described. To examine the effects of SM-345431-silicone, small pieces (2 × 1 × 0.3 mm; approximately 1 mg containing 1 μg of SM-345431) of the SM-345431-silicone or control-silicone were placed in a collagen gel adjacent to E8 chick DRGs and COS7 cell aggregates, as shown in Figure 1C.
# Chain of Caspase 1 (P29466 120-297 limits assumed, species assumed): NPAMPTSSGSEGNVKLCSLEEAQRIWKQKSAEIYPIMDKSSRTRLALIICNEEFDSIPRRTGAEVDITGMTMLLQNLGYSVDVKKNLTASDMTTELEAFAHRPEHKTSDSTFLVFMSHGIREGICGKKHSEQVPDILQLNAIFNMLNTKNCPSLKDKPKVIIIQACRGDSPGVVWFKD
# Chain of Caspase 1 (P29466 317-404 limits assumed, species assumed): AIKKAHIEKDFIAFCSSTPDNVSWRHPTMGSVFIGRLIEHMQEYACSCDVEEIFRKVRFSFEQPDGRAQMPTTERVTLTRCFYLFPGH
# Chain of Caspase 3 (P42574 29-175 limits assumed, species assumed): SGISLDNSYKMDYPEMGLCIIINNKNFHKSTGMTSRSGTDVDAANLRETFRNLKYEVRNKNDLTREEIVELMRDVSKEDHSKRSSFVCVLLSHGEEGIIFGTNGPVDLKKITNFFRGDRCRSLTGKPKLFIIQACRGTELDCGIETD
# Chain of Caspase 3 (P42574 176-277 limits assumed, species assumed): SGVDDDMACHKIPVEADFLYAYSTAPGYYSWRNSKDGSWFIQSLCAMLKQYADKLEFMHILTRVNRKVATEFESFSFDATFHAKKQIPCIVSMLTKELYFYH
smiles,measurement,setting,value
"CC(=O)c1cc2c(=O)c3c(C(=O)O)c(O)c(O)cc3oc2c(C(C)=O)c1-c1coc2cc(O)c(O)c(C(=O)O)c2c1=O [SM-345431, Vinaxanthone]",IC50,Caspase 1,> 10 µM
same,IC50,Caspase 3,> 10 µM
same,IC50,Caspase 6,> 10 µM
same,IC50,Caspase 7,> 10 µM
same,IC50,Caspase 8,> 10 µM
same,IC50,[1],> 10 µM
same,IC50,[2],> 10 µM
same,IC50,[3],> 10 µM
same,IC50,[4],10 µM
same,IC50,[5],> 10 µM
same,IC50,[6],> 10 µM
same,IC50,[7],> 10 µM
same,IC50,[8],> 10 µM
same,IC50,[9],> 10 µM
same,IC50,[10],> 10 µM
same,IC50,[11],> 10 µM
same,IC50,[12],> 10 µM
same,IC50,semaphorin3A,100 to 200 nM
